# Experimental data from ChEMBL document CHEMBL1201862, “PubChem BioAssay data set” (2004).
# Active and inactive are the calls of the source.
# Legend:
# [1] = biological target: ALK tyrosine kinase receptor (Homo sapiens, UniProt Q9UM73); format: functional;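 also: ALK tested as one member of a kinase panel screen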
# [2] = biological target: Calcium/calmodulin-dependent protein kinase type II subunit alpha (Homo sapiens, UniProt Q9UQM7); assay: Navigating the Kinome. Panel member name: CAMK2A; format: functional
# [3] = biological target: Vascular endothelial growth factor receptor 2 (Homo sapiens, UniProt P35968); format: functional
# [4] = biological target: Glycogen synthase kinase-3 alpha (Homo sapiens, UniProt P49840); format: functional;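 also: GSK3A result taken from a broad kinome-wide kinase panel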
# [5] = biological target: Fibroblast growth factor receptor 1 (Homo sapiens, UniProt P11362); format: functional
# [6] = biological target: Rho-associated protein kinase 1 (Homo sapiens, UniProt Q13464); format: functional;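 also: measured within a broad kinome-wide panel profiling many kinases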
# [7] = biological target: Glycogen synthase kinase-3 beta (Homo sapiens, UniProt P49841); format: functional;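 also: value comes from a broad kinome profiling panel, with GSK3B as the panel member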
# [8] = biological target: Dual specificity tyrosine-phosphorylation-regulated kinase 1A (Homo sapiens, UniProt Q13627); format: functional;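 also: measured against DYRK1A as one member of a broad kinome profiling panel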
# [9] = biological target: cAMP-dependent protein kinase catalytic subunit alpha (Homo sapiens, UniProt P17612); format: functional
# [10] = biological target: Vascular endothelial growth factor receptor 1 (Homo sapiens, UniProt P17948); format: functional;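 also: measured within a kinome-wide profiling panel, FLT1 as the panel member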
# [11] = biological target: Mitogen-activated protein kinase 9 (Homo sapiens, UniProt P45984); format: functional;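 also: value from a kinome panel profiling assay, MAPK9 panel entry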
# [12] = biological target: Mast/stem cell growth factor receptor Kit (Homo sapiens, UniProt P10721); format: functional;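 also: KIT entry within a kinase panel assay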
# [13] = biological target: cAMP-dependent protein kinase catalytic subunit PRKX (Homo sapiens, UniProt P51817); format: functional
# [14] = biological target: Serine/threonine-protein kinase TAO1 (Homo sapiens, UniProt Q7L7X3); format: functional
# [15] = biological target: Dual specificity protein kinase CLK4 (Homo sapiens, UniProt Q9HAZ1); format: functional
# [16] = biological target: Dual specificity protein kinase CLK2 (Homo sapiens, UniProt P49760); format: functional
# [17] = biological target: Cyclin-dependent kinase 7 (Homo sapiens, UniProt P50613); format: functional;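 also: value comes from a kinome-wide kinase profiling panel in which CDK7 is one member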
# [18] = biological target: Macrophage-stimulating protein receptor (Homo sapiens, UniProt Q04912); assay: Navigating the Kinome. Panel member name: MST1R; format: functional
# [19] = biological target: BDNF/NT-3 growth factors receptor (Homo sapiens, UniProt Q16620); format: functional;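 also: NTRK2 measured as one member of a broad kinome-wide kinase profiling panel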
# Focal adhesion kinase 1 = Focal adhesion kinase 1 (Homo sapiens, UniProt Q05397); format: functional;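 also: measured as one member of a kinome panel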
# Cytochrome P450 1A2 = biological target: T1, Cytochrome P450 1A2 (Homo sapiens, UniProt P05177);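 also: PubChem cytochrome P450 panel assay, CYP1A2 panel member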
# T1 sequence (P05177 whole entry): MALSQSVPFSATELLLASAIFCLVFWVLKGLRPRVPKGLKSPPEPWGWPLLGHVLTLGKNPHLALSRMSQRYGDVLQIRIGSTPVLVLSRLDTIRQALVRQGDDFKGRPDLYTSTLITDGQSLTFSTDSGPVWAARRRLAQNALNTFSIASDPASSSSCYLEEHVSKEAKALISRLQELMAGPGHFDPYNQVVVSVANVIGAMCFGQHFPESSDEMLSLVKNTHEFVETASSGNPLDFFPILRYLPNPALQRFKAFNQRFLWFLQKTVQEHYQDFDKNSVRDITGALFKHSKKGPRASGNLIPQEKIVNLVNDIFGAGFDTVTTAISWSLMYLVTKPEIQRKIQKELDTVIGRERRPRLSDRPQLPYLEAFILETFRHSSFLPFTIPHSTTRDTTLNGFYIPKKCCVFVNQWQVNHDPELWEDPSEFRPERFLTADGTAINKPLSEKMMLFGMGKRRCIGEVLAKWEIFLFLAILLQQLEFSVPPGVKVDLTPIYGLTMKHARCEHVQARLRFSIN
# Activated CDC42 kinase 1 = Activated CDC42 kinase 1 (Homo sapiens, UniProt Q07912); assay: Navigating the Kinome. Panel member name: ACK1; format: functional
# [20] = biological target: Insulin-like growth factor 1 receptor (Homo sapiens, UniProt P08069); assay: Navigating the Kinome. Panel member name: IGF1R; format: functional
# [21] = biological target: Hepatocyte growth factor receptor (Homo sapiens, UniProt P08581); format: functional;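 also: kinase panel profiling across the kinome, with MET as the panel member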
# [22] = biological target: Serine/threonine-protein kinase PAK 4 (Homo sapiens, UniProt O96013); format: functional;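 also: value obtained within a kinome profiling panel in which PAK4 was one of the panel members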
# [23] = biological target: Tyrosine-protein kinase JAK2 (Homo sapiens, UniProt O60674); format: functional;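 also: JAK2 tested as one member of a kinase panel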
# Aurora kinase A = Aurora kinase A (Homo sapiens, UniProt O14965); format: functional;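 also: value from the Navigating the Kinome kinase panel profiling, panel entry STK6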
# [24] = biological target: G protein-coupled receptor kinase 5 (Homo sapiens, UniProt P34947); assay: Navigating the Kinome. Panel member name: GPRK5; format: functional
# [25] = biological target: 5'-AMP-activated protein kinase catalytic subunit alpha-1 (Homo sapiens, UniProt Q13131); format: functional
# [26] = biological target: Platelet-derived growth factor receptor alpha (Homo sapiens, UniProt P16234); assay: Navigating the Kinome. Panel member name: PDGFRA; format: functional
# [27] = biological target: Serine/threonine-protein kinase pim-1 (Homo sapiens, UniProt P11309); format: functional
# [28] = biological target: High affinity nerve growth factor receptor (Homo sapiens, UniProt P04629); format: functional;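 also: NTRK1 tested as one member of a kinome-wide profiling panel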
# [29] = biological target: Mitogen-activated protein kinase 8 (Homo sapiens, UniProt P45983); format: functional;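 also: value comes from one member of a kinome-wide kinase profiling panel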
# [30] = biological target: Dual specificity mitogen-activated protein kinase kinase 2 (Homo sapiens, UniProt P36507); assay: Navigating the Kinome. Panel member name: MAP2K2; format: functional
# [31] = biological target: Cyclin-dependent kinase 8 (Homo sapiens, UniProt P49336); assay: Navigating the Kinome. Panel member name: CDK8; format: functional
# [32] = biological target: Tyrosine-protein kinase Lck (Homo sapiens, UniProt P06239); format: functional;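 also: lck was assayed as one member of a kinase panel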
# [33] = biological target: Mitogen-activated protein kinase 10 (Homo sapiens, UniProt P53779); assay: Navigating the Kinome. Panel member name: MAPK10; format: functional
# [34] = biological target: Dual specificity tyrosine-phosphorylation-regulated kinase 1B (Homo sapiens, UniProt Q9Y463); assay: Navigating the Kinome. Panel member name: DYRK1B; format: functional
# [35] = biological target: Casein kinase I isoform alpha (Homo sapiens, UniProt P48729); format: functional
# [36] = biological target: Tyrosine-protein kinase JAK3 (Homo sapiens, UniProt P52333); format: functional
# 5'-AMP-activated protein kinase catalytic subunit alpha-1, sequence (Q13131 whole entry): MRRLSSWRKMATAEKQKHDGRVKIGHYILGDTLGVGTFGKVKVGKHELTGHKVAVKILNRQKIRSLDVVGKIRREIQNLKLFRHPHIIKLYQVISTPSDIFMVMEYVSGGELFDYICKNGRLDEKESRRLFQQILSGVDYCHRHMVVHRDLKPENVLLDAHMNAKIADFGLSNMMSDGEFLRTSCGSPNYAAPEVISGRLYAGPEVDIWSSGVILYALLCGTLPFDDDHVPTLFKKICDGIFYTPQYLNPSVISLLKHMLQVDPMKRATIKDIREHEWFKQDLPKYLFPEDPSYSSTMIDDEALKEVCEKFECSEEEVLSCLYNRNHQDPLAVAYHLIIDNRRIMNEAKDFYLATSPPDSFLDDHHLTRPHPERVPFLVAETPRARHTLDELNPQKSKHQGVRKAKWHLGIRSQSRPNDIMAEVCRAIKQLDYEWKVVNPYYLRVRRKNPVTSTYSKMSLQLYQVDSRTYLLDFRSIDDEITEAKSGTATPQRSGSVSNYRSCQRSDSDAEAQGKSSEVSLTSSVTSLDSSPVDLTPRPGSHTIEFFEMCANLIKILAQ
# Tyrosine-protein kinase Lck, sequence (P06239 whole entry): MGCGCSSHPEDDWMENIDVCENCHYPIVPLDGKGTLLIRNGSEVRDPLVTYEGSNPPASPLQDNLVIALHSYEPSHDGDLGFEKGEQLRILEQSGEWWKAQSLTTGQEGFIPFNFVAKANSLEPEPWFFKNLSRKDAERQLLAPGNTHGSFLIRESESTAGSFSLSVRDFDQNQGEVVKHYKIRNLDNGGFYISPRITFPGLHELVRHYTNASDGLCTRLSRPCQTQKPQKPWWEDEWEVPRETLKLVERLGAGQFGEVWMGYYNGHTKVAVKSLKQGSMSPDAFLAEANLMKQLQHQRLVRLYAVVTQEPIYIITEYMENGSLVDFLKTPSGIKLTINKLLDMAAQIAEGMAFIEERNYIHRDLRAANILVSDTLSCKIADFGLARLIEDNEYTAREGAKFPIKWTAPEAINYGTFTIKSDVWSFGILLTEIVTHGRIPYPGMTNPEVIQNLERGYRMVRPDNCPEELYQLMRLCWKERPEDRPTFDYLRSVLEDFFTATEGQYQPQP
# G protein-coupled receptor kinase 5, sequence (P34947 whole entry): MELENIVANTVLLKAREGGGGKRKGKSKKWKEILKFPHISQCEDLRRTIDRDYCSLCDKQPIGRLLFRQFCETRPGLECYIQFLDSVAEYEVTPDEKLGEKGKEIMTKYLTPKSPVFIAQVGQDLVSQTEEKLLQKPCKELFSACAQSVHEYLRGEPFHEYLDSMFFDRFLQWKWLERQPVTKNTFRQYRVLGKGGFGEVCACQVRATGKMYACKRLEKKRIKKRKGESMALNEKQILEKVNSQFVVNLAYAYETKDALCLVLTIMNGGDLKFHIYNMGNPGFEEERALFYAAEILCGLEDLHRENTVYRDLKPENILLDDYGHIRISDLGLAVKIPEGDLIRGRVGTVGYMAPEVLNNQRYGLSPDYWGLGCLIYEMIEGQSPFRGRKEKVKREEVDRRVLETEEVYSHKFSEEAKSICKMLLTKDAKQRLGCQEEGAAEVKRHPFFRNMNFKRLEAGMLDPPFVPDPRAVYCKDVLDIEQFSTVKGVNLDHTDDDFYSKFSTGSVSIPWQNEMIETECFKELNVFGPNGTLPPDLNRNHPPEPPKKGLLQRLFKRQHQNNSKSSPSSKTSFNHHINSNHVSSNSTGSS
# High affinity nerve growth factor receptor, sequence (P04629 whole entry): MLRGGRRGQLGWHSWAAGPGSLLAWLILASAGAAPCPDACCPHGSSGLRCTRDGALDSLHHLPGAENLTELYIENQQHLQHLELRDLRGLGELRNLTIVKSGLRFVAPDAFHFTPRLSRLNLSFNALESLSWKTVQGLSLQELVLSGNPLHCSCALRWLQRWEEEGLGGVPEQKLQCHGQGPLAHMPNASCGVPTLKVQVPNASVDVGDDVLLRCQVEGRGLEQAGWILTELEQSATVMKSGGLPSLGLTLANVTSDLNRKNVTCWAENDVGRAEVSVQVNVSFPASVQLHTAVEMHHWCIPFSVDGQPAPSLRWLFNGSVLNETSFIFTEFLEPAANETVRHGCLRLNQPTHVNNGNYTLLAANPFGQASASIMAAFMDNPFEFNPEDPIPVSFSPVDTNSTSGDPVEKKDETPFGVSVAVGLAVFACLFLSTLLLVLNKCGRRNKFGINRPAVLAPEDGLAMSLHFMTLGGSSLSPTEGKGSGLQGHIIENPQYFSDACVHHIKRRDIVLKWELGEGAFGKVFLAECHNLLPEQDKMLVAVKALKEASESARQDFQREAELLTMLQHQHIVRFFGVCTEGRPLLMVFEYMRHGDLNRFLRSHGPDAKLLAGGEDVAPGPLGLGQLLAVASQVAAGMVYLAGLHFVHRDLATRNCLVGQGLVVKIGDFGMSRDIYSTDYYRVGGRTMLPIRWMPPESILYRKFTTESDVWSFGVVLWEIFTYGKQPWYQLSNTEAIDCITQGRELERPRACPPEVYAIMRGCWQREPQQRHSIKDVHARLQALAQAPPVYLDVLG
# Dual specificity tyrosine-phosphorylation-regulated kinase 1B, sequence (Q9Y463 whole entry, canonical isoform): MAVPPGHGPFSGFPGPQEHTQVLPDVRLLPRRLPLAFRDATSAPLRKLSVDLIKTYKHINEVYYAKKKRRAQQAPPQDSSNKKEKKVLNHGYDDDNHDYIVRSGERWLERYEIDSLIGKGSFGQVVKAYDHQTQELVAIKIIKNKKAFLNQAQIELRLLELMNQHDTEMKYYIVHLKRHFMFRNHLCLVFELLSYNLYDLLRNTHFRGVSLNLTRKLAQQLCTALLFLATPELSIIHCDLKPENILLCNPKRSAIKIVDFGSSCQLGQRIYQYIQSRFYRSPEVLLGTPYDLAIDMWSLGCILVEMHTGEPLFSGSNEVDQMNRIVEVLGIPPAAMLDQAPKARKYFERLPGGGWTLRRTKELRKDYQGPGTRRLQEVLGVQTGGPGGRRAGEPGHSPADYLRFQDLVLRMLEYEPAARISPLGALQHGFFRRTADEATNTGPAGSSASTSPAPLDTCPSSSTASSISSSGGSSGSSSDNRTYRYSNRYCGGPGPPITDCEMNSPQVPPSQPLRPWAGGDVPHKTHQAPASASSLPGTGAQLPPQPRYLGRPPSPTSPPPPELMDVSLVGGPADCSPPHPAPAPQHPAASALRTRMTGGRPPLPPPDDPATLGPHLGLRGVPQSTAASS
# Tyrosine-protein kinase JAK2, sequence (O60674 whole entry): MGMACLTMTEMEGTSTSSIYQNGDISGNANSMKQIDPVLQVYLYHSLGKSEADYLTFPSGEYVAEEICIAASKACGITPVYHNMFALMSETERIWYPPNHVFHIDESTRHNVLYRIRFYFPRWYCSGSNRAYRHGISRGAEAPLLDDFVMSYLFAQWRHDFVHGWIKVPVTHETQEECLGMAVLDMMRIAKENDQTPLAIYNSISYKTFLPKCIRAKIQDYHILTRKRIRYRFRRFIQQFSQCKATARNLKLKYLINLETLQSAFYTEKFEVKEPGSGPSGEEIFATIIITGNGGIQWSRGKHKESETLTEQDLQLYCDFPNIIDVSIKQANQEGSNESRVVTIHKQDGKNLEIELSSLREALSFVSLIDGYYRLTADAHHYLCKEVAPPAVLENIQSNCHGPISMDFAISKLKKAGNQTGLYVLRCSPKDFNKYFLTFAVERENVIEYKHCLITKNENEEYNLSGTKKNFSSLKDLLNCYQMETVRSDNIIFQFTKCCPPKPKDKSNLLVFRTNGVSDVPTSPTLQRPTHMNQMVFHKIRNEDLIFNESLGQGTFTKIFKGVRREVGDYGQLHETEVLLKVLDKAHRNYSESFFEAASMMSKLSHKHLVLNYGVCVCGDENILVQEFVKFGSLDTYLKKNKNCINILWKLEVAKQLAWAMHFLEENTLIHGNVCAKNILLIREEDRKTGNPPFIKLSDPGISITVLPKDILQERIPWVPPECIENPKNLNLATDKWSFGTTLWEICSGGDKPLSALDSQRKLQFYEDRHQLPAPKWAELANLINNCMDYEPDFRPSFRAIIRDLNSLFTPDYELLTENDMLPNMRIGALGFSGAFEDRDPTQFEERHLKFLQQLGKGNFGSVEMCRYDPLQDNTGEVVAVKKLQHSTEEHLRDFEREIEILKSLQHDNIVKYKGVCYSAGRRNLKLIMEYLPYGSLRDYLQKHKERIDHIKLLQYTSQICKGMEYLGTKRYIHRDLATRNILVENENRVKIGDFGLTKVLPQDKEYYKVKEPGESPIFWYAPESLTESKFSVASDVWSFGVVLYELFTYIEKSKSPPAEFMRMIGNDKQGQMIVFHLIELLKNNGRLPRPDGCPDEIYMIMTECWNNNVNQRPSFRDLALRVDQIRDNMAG
# Serine/threonine-protein kinase pim-1, sequence (P11309 whole entry): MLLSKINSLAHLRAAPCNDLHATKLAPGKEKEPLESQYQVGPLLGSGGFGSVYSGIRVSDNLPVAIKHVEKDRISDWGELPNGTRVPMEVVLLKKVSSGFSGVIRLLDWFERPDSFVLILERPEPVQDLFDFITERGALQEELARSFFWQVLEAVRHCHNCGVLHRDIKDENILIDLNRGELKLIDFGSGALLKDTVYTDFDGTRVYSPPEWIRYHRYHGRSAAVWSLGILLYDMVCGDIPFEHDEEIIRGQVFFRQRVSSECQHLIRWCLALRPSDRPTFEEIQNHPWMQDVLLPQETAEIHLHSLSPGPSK
# cAMP-dependent protein kinase catalytic subunit PRKX, sequence (P51817 whole entry): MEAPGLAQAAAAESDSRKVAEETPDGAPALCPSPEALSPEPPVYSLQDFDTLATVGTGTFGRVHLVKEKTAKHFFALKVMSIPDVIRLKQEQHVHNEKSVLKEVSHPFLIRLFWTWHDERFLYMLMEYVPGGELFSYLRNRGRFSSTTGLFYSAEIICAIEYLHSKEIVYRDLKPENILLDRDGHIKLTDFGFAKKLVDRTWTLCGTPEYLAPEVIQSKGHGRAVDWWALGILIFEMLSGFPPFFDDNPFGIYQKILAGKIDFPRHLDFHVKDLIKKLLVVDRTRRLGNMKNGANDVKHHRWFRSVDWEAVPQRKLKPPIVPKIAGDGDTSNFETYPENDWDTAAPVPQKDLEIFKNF
compound,measurement,setting,value
NC(=O)c1ccc(-c2nc(-c3ccc4c(c3)OCO4)c(-c3ccccn3)[nH]2)cc1 [SB-431542],Ki,[1],> 6.31 µM (inactive)
same,Ki,[2],> 7.94 µM (inactive)
same,Ki,[3],> 2.51 µM (inactive)
same,Ki,[4],> 3.98 µM (inactive)
same,Ki,[5],> 3.98 µM (inactive)
same,Ki,[6],> 3.98 µM (inactive)
same,Ki,[7],> 3.98 µM (inactive)
same,Ki,[8],> 2 µM (inactive)
same,Ki,[9],> 1.26 µM (inactive)
same,Ki,[10],> 3.98 µM (inactive)
same,Ki,[11],> 3.98 µM (inactive)
same,Ki,[12],> 6.31 µM (inactive)
same,Ki,[13],> 3.16 µM (inactive)
same,Ki,[14],> 2.51 µM (inactive)
same,Ki,[15],> 2.51 µM (inactive)
same,Ki,[16],> 3.98 µM (inactive)
same,Ki,[17],> 3.98 µM (inactive)
same,Ki,[18],> 3.98 µM (inactive)
same,Ki,[19],> 3.98 µM (inactive)
same,Ki,Focal adhesion kinase 1,> 6.31 µM (inactive)
same,AC50,Cytochrome P450 1A2,15.8 µM (inconclusive)
same,Ki,Activated CDC42 kinase 1,> 3.98 µM (inactive)
same,Ki,[20],> 2.51 µM (inactive)
same,Ki,[21],> 2.51 µM (inactive)
same,Ki,[22],> 5.01 µM (inactive)
same,Ki,[23],> 2.51 µM (inactive)
same,Ki,Aurora kinase A,> 1.58 µM (inactive)
same,Ki,[24],> 3.98 µM (inactive)
same,Ki,[25],> 3.16 µM (inactive)
same,Ki,[26],> 2.51 µM (inactive)
same,Ki,[27],> 6.31 µM (inactive)
same,Ki,[28],> 3.16 µM (inactive)
same,Ki,[29],> 5.01 µM (inactive)
same,Ki,[30],> 3.98 µM (inactive)
same,Ki,[31],> 3.98 µM (inactive)
same,Ki,[32],> 6.31 µM (inactive)
same,Ki,[33],> 3.16 µM (inactive)
same,Ki,[34],> 2.51 µM (inactive)
same,Ki,[35],0.1 µM (active)
same,Ki,[36],> 5.01 µM (inactive)
